Test results: patent publication US6080791A, “Method of treating a viral condition by inhibiting membrane fusion” (priority 1992, dated 2000)
Read-outs that look alike come from different tables or passages of the source.

Key:
[1] = molecular target: hemagglutinin (BHA), fusion peptide exposure (Influenza A virus (A/X-31(H3N2)), UniProt P03438); type: biochemical, C22 / X31 influenza virus (H3N2)
in vitro = conditions: dog, mdck
Method: The ELISA-based assay described below (EIA antiviral assay) was used to measure antiviral activity. Cell viability was measured in parallel to distinguish inhibition of viral replication from toxicity.
Infections of MDCK2 cells with virus, compounds, and DMSO were set up identically as for the EIA assay. Following the 15 hour incubation, test compounds were washed away with PBS. 50 μl of MDCK2 growth media and 25 μl 2 mg/ml 3-(4,5-dimethylthiazol-2-yl)-2,5-diphenyl tetrazolium bromide (Sigma) in PBS were added to each well. Plates were returned to 37° C., 5% CO2 for 4 hrs. Crystals were broken up by vigorous mixing following addition of 80 μl isopropanol/0.04 N HCl. After incubation for 30 mins at RT, OD570 was read on an ELISA reader. % Inhibition is the % reduction of OD570 in the wells infected with compound compared to otherwise identical samples with compound omitted.

Sequence of hemagglutinin (BHA), fusion peptide exposure (Influenza A virus (A/X-31(H3N2)), UniProt P03438) (P03438 whole entry, looked up, the tested form may be a part): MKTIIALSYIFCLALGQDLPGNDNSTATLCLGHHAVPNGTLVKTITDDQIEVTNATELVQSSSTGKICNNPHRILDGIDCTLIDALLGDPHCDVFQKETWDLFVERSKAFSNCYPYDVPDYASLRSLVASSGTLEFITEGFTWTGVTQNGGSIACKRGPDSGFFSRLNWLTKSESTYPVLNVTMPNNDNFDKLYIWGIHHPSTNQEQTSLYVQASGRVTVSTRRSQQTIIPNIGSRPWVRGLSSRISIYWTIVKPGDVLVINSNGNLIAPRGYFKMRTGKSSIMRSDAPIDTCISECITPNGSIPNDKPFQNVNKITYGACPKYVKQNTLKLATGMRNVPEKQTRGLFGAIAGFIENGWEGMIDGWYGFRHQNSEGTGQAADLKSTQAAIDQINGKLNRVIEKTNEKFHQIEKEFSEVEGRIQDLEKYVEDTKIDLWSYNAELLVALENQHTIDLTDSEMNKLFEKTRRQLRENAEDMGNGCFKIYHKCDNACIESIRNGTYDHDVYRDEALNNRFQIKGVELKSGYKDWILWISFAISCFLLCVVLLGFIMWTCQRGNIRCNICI

Row | Structure (SMILES) | inhibition in the SPA assay ([1]; 1 μM-1 mM) | activity note in Table 7 ([1]; Table 7) | further results
1 | O=c1[nH][nH]c(=O)c2ccccc12 [Compound 108, phthalhydrazide] | showed no inhibition | inactive | –
2 | O=C1C2C3C=CC(C3)C2C(=O)N1O (centres unmarked) [Compound 94, N-hydroxy-5-norbornene-2,3-dicarboximide] | showed no inhibition | inactive | –
3 | O=C1C=CC(=O)c2c(O)cccc21 [Compound 119, 5-hydroxy-1,4-naphthoquinone] | showed no inhibition | inactive | cytotoxicity at 15 h, 100 µM (in vitro): 97.8%
4 | Oc1ccc(O)cc1 [Compound 104, hydroquinone] | – | – | activity note in Table 7 [1]: inactive; inhibition in the SPA assay [1]: showed no inhibition
5 | CC1=CC(=O)c2ccccc2C1=O [Compound 118, 2-methyl-1,4-naphthoquinone] | showed no inhibition | inactive | –
6 | ClC1(Cl)C2CC3C4C=CC(C4)C3C21 (centres unmarked) [Compound 92, 5,5-dichlorotetracyclo-[6.2.1.0,2,7.0.4.6] undec-9-ene] | showed no inhibition | – | –
7 | O=C(O)C1C2C=CC(C2)C1C(=O)Nc1ccccc1 (centres unmarked) [Compound 98, 3-(N-phenylcarbamoyl)-5-norbornen-2-carboxylic acid] | showed no inhibition | – | –
8 | N#Cc1c(O)ccc(O)c1C#N [Compound 103, 2,3-dicyanohydroquinone] | showed no inhibition | inactive | –
9 | CCOC(=O)c1c(C)cc(O)cc1O [Compound 122, ethyl 2,4-dihydroxy-6-methylbenzoate] | showed no inhibition | inactive | –
10 | CC(=O)OC1CC2CC1C1C3C=CC(C3)C21 (centres unmarked) [Compound 88, 1,2,3,4,4A,5,8,8A-octahydro-1,4:5,8-dimethanonaphth-2-yl acetate] | showed no inhibition | inactive | –
11 | OC1=CCC2C3C=CC(C3)C12 (centres unmarked) [Compound 109, hydroxydicyclopentadiene] | showed no inhibition | inactive | –
12 | Oc1ccc2ccccc2c1O [Compound 124, 1,2-dihydroxynaphthalene] | – | – | infectivity in Table 6 (C22 virus in MDCK2 cells; Table 6): toxic; INF, words (Table 7) (C22 virus in MDCK2 cells; Table 7): toxic; cytotoxicity at 15 h, 100 µM (in vitro): 80.5%
13 | O=C(O)C1C2C=CC(O2)C1C(=O)O (centres unmarked) [Compound 86, 3,6-endoxo-1,2,3,6-tetrahydrophthalic acid] | showed no inhibition | inactive | –
